Laboratory results published in patent US10544106B2, “Certain chemical entities, compositions, and methods” (NeuPharma, Inc., priority 2016, dated 2020).

Target: BTK (Homo sapiens (Human), UniProt Q06187)
Assay: Z'-LYTE kinase inhibition assay against BTK
Assay type: biochemical
Settings: for inhibition at 0.1 µM: compound at 100 nM, ATP concentration at Km; for IC50: series of concentrations, GraphPad Prism 5
Procedure, shortened: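 Compounds were titrated over 10 points (3-fold steps, 1% DMSO) against BTK (1.04-10.4 ng) using Tyr 01 substrate at 2 μM and ATP at Km, pH 7.5 HEPES buffer with MgCl2 and EGTA. After one hour each of reaction and development at room temperature, fluorescence gave percent inhibition and IC50.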

Chain of BTK (Q06187 whole entry): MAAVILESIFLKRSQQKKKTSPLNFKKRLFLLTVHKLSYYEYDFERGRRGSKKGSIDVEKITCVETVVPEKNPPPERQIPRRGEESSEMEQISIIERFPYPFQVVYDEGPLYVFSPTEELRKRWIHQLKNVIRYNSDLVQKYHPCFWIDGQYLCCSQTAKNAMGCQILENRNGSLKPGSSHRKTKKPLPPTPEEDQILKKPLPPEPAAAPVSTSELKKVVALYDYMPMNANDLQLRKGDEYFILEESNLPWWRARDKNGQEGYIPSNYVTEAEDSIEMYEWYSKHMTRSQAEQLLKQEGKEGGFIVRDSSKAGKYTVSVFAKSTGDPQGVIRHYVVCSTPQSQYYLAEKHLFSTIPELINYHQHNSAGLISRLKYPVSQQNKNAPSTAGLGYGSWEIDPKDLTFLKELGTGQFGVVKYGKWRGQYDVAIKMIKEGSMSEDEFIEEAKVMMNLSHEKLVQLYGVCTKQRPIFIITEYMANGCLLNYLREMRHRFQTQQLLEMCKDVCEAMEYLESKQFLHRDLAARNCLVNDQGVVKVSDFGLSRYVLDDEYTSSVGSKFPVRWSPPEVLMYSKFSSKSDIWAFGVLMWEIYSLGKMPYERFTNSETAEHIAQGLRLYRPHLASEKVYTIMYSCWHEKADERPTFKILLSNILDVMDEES

Molecule `C=CC(=O)Nc1cccc(-c2cc(-c3ccc(C(=O)Nc4cc(C#N)ccn4)cc3)c(N)c3cncnc23)c1` [C176, 4-(8-(3-acrylamidophenyl)-5-aminoquinazolin-6-yl)-N-(4-cyanopyridin-2-yl)benzamide] has an inhibition at 0.1 µM of under 50%.

In the case of `C=CC(=O)Nc1cccc(-c2cc(-c3ccc(C(=O)Nc4ccccn4)cc3F)c(N)c3cncnc23)c1` [C177, 4-(8-(3-acrylamidophenyl)-5-aminoquinazolin-6-yl)-3-fluoro-N-(pyridin-2-yl)benzamide], the inhibition at 0.1 µM is reported as under 50%.

In the case of `C=CC(=O)Nc1cccc(-c2cc(-c3ccc(C(=O)Nc4ccccn4)cc3)c(N)c3cnc(N)nc23)c1` [C178, 4-(8-(3-acrylamidophenyl)-2,5-diamino-quinazolin-6-yl)-N-(pyridin-2-yl)benzamide], the inhibition at 0.1 µM is reported as under 50%.

`C=CC(=O)Nc1cccc(-c2cc(-c3ccc(Oc4ccccn4)cc3)c(N)c3cncnc23)c1` [C179, N-(3-(5-amino-6-(4-(pyridin-2-yloxy)phenyl)quinazolin-8-yl)phenyl)acrylamide] was tested, and the inhibition at 0.1 µM was under 50%.

In the case of `C=CC(=O)Nc1cccc(-c2cc(-c3ccc(Oc4cc(C(F)(F)F)ccn4)cc3F)cc3cncnc23)c1` [C180], the inhibition at 0.1 µM is reported as over 50%.

`C=CC(=O)N1CCC(c2cc(-c3ccc(Oc4ccccn4)cc3)c(N)c3cncnc23)C1` (stereo not drawn) [C181, 1-(3-(5-amino-6-(4-(pyridin-2-yloxy)phenyl)quinazolin-8-yl)pyrrolidin-1-yl)prop-2-en-1-one] showed an inhibition at 0.1 µM of under 50%.

Work on `C=CC(=O)Nc1cccc(-c2cc(-c3ccc(Oc4ccccc4)cc3)c(N)c3cncnc23)c1` [C182, N-(3-(5-amino-6-(4-phenoxyphenyl)quinazolin-8-yl)phenyl)acrylamide] yielded an inhibition at 0.1 µM of under 50%.

`C=CC(=O)Nc1cccc(-c2cc(-c3ccc(Oc4cc(C(F)(F)F)ccn4)cc3F)c(N)c3cncnc23)c1` [C187, N-(3-(5-amino-6-(2-fluoro-4-((4-(trifluoromethyl)pyridin-2-yl)oxy)phenyl)quinazolin-8-yl)phenyl)acrylamide] showed an inhibition at 0.1 µM of under 50% and an IC50 of over 100 nM.

`C=CC(=O)Nc1cccc(-c2cc(-c3ccc(Oc4cc(C(F)(F)F)ccn4)cc3)c(N)c3cncnc23)c1` [C188, N-(3-(5-amino-6-(4-((4-(trifluoromethyl)pyridin-2-yl)oxy)phenyl)quinazolin-8-yl)phenyl)acrylamide] showed an inhibition at 0.1 µM of under 50% and an IC50 of over 100 nM.

For `C=CC(=O)Nc1cccc(-c2cc(-c3ccc(Oc4cc(C#N)ccn4)cc3F)cc3cncnc23)c1` [C189, N-(3-(6-(4-((4-cyanopyridin-2-yl)oxy)-2-fluorophenyl)quinazolin-8-yl)phenyl)acrylamide], the inhibition at 0.1 µM was over 50% and the IC50 was under 100 nM.

For `C=CC(=O)Nc1cccc(-c2cc(-c3ccc(C(=O)Nc4ccccn4)cc3Cl)c(N)c3cncnc23)c1` [C190, 4-(8-(3-acrylamidophenyl)-5-aminoquinazolin-6-yl)-3-chloro-N-(pyridin-2-yl)benzamide], the inhibition at 0.1 µM was over 50% and the IC50 was under 100 nM.

In the case of `C=CC(=O)Nc1cccc(-c2cc(-c3ccc(Oc4cc(C(N)=O)ccn4)cc3)cc3cncnc23)c1` [C191, 2-(4-(8-(3-acrylamidophenyl)quinazolin-6-yl)phenoxy)isonicotinamide], the inhibition at 0.1 µM is reported as over 50% and the IC50 is reported as under 100 nM.

With `C=CC(=O)N1CCC(c2cc(-c3ccc(Oc4ccccc4)cc3)c(N)c3cncnc23)C1` (stereo not drawn) [C192, 1-(3-(5-amino-6-(4-phenoxyphenyl)quinazolin-8-yl)pyrrolidin-1-yl)prop-2-en-1-one] the inhibition at 0.1 µM was under 50% and the IC50 was over 100 nM.

`C=CC(=O)N1CCC(c2cc(-c3ccc(Oc4cc(C(F)(F)F)ccn4)cc3)c(N)c3cncnc23)C1` (stereo not drawn) [C193, 1-(3-(5-amino-6-(4-((4-(trifluoromethyl)pyridin-2-yl)oxy)phenyl)quinazolin-8-yl)pyrrolidin-1-yl)prop-2-en-1-one] showed an inhibition at 0.1 µM of under 50% and an IC50 of over 100 nM.

`C=CC(=O)Nc1cccc(-c2cc(-c3ccc(Oc4cc(C(N)=O)ccn4)cc3F)cc3cncnc23)c1` [C194, 2-(4-(8-(3-acrylamidophenyl)quinazolin-6-yl)-3-fluorophenoxy)isonicotinamide] gave an inhibition at 0.1 µM of over 50% and an IC50 of under 100 nM.

`C=CC(=O)N1CCC(c2cc(-c3ccc(Oc4cc(C(F)(F)F)ccn4)cc3F)c(N)c3cncnc23)C1` (stereo not drawn) [C195, 1-(3-(5-amino-6-(2-fluoro-4-((4-(trifluoro-methyl)pyridin-2-yl)oxy)phenyl)quinazolin-8-yl)pyrrolidin-1-yl)prop-2-en-1-one] showed an inhibition at 0.1 µM of under 50% and an IC50 of over 100 nM.

Work on `C=CC(=O)Nc1cccc(-c2cc(-c3ccc(Oc4cc(C5CC5)ccn4)cc3F)cc3cncnc23)c1` [C198, N-(3-(6-(4-((4-cyclopropylpyridin-2-yl)oxy)-2-fluorophenyl)quinazolin-8-yl)phenyl)acrylamide] yielded an inhibition at 0.1 µM of over 50% and an IC50 of under 100 nM.

`C=CC(=O)Nc1cccc(-c2cc(-c3ccc(C(=O)Nc4cc(C5CC5)ccn4)cc3Cl)c(N)c3cncnc23)c1` [C200, 4-(8-(3-acrylamidophenyl)-5-aminoquinazolin-6-yl)-3-chloro-N-(4-cyclopropylpyridin-2-yl)benzamide] showed an inhibition at 0.1 µM of over 50%.

Work on `C=CC(=O)Nc1cccc(-c2cc(-c3ccc(C(=O)Nc4ccccn4)cc3C#N)cc3cncnc23)c1` [C201, 4-(8-(3-acrylamidophenyl)quinazolin-6-yl)-3-cyano-N-(pyridin-2-yl)benzamide] yielded an inhibition at 0.1 µM of over 50% and an IC50 of under 100 nM.

`C=CC(=O)Nc1cccc(-c2cc(-c3ccc(C(=O)Nc4cc(C5CC5)ccn4)cc3F)c(N)c3cncnc23)c1` [C202, 4-(8-(3-acrylamidophenyl)-5-aminoquinazolin-6-yl)-N-(4-cyclopropylpyridin-2-yl)-3-fluorobenzamide] showed an inhibition at 0.1 µM of over 50%.

In the case of `C=CC(=O)Nc1cccc(-c2cc(-c3ccc(Oc4ccccn4)cc3Cl)c(N)c3cncnc23)c1` [C203, N-(3-(5-amino-6-(2-chloro-4-(pyridin-2-yloxy)phenyl)quinazolin-8-yl)phenyl)acrylamide], the inhibition at 0.1 µM is reported as over 50%.

Molecule `CC#CC(=O)N1CCC(c2nc(-c3ccc(C(=O)Nc4ccccn4)cc3)n3c(N)ncnc23)C1` (stereo not drawn) [C205, 4-(4-amino-8-(1-(but-2-ynoyl)pyrrolidin-3-yl)imidazo[1,5-a][1,3,5]triazin-6-yl)-N-(pyridin-2-yl)benzamide] has an inhibition at 0.1 µM of over 50%.

`C=CC(=O)N1CCC(c2nc(-c3ccc(Oc4cc(C(F)(F)F)ccn4)c(F)c3)n3c(N)nccc23)C1` (stereo not drawn) [C206, 1-(3-(5-amino-3-(3-fluoro-4-((4-(trifluoro-methyl)pyridin-2-yl)oxy)phenyl)imidazo[1,5-c]pyrimidin-1-yl)pyrrolidin-1-yl)prop-2-en-1-one] gave an inhibition at 0.1 µM of over 50% and an IC50 of under 100 nM.

For `CC#CC(=O)N1CCC(c2nc(-c3ccc(Oc4cc(C(F)(F)F)ccn4)c(F)c3)n3c(N)nccc23)C1` (stereo not drawn) [C207, 1-(3-(5-amino-3-(3-fluoro-4-((4-(trifluoro-methyl)pyridin-2-yl)oxy)phenyl)imidazo[1,5-c]pyrimidin-1-yl)pyrrolidin-1-yl)but-2-yn-1-one], the inhibition at 0.1 µM was over 50%.

`C=CC(=O)N1CCC(c2nc(-c3ccc(Oc4ccccn4)c(F)c3)n3c(N)nccc23)C1` (stereo not drawn) [C208, 1-(3-(5-amino-3-(3-fluoro-4-(pyridin-2-yloxy)phenyl)imidazo[1,5-c]pyrimidin-1-yl)pyrrolidin-1-yl)prop-2-en-1-one] was tested, and the inhibition at 0.1 µM was over 50% and the IC50 was under 100 nM.

For `CC#CC(=O)N1CCC(c2nc(-c3ccc(Oc4ccccn4)c(F)c3)n3c(N)nccc23)C1` (stereo not drawn) [C209, 1-(3-(5-amino-3-(3-fluoro-4-(pyridin-2-yloxy)phenyl)imidazo[1,5-c]pyrimidin-1-yl)pyrrolidin-1-yl)but-2-yn-1-one], the inhibition at 0.1 µM was over 50%.

Work on `C=CC(=O)Nc1cccc(-c2cc(-c3ccc(C(=O)Nc4ncccc4F)cc3)c(N)c3cncnc23)c1` [C211, 4-(8-(3-acrylamidophenyl)-5-aminoquinazolin-6-yl)-N-(3-fluoropyridin-2-yl)benzamide] yielded an inhibition at 0.1 µM of under 50%.

`C=CC(=O)N1CCC(c2nc(-c3ccc(Oc4ccccn4)c(OC)c3)n3c(N)nccc23)C1` (stereo not drawn) [C212, 1-(3-(5-amino-3-(3-methoxy-4-(pyridin-2-yloxy)phenyl)imidazo[1,5-c]pyrimidin-1-yl)pyrrolidin-1-yl)prop-2-en-1-one] showed an inhibition at 0.1 µM of over 50% and an IC50 of under 100 nM.

With `CC#CC(=O)N1CCC(c2nc(-c3ccc(Oc4ccccn4)c(OC)c3)n3c(N)nccc23)C1` (stereo not drawn) [C213, 1-(3-(5-amino-3-(3-methoxy-4-(pyridin-2-yloxy)phenyl)imidazo[1,5-c]pyrimidin-1-yl)pyrrolidin-1-yl)but-2-yn-1-one] the inhibition at 0.1 µM was over 50%.

`CC#CC(=O)N1CCC(c2nc(-c3ccc(Oc4cc(OC)ccn4)cc3)n3c(N)nccc23)C1` (stereo not drawn) [C214, 1-(3-(5-amino-3-(4-((4-methoxypyridin-2-yl)oxy)phenyl)imidazo[1,5-c]pyrimidin-1-yl)pyrrolidin-1-yl)but-2-yn-1-one] showed an inhibition at 0.1 µM of over 50%.

`C=CC(=O)N1CCC(c2cc(-c3ccc(C(=O)Nc4ncccc4F)cc3)c(N)c3cncnc23)C1` (stereo not drawn) [C215, 4-(8-(1-acryloylpyrrolidin-3-yl)-5-amino-quinazolin-6-yl)-N-(3-fluoropyridin-2-yl)benzamide] showed an inhibition at 0.1 µM of under 50%.

`C=CC(=O)N1CCC(c2nc(-c3ccc(Oc4cc(OC)ccn4)c(F)c3)n3c(N)nccc23)C1` (stereo not drawn) [C216, 1-(3-(5-amino-3-(3-fluoro-4-((4-methoxy-pyridin-2-yl)oxy)phenyl)imidazo[1,5-c]pyrimidin-1-yl)pyrrolidin-1-yl)prop-2-en-1-one] was tested, and the inhibition at 0.1 µM was over 50% and the IC50 was under 100 nM.

With `C=CC(=O)Nc1cccc(-c2cc(-c3ccc(C(=O)Nc4ncccc4F)cc3Cl)c(N)c3cncnc23)c1` [C217, 4-(8-(3-acrylamidophenyl)-5-aminoquinazolin-6-yl)-3-chloro-N-(3-fluoropyridin-2-yl)benzamide] the inhibition at 0.1 µM was over 50%.
